target: CXCR4 (Homo sapiens, UniProt P61073); assay: FLIPR Tetra calcium mobilization assay; type: cell-based; settings: Human CD4+ T-Cells; CXCL12 added; FLIPR Calcium 4 assay kit
Protocol: FLIPR Tetra Calcium Mobilization Assay The FLIPR Tetra calcium mobilization assay was performed by HD Bioscience. Briefly, The Molecular Devices, Fluorescent Imaging Plate Reader (FLIPR) Tetra was used in this assay. Excitation was achieved through unique placement of LED's within the instrument and emission captured by a CCD camera (EMCCD camera for FI and ICCD camera for luminescence). The homogeneous FLIPR Calcium 4 assay kit from Molecular Devices was used as the fluorescence reagent. Compounds were solubilized in 100% dimethyl sulfoxide (DMSO) to a concentration of 30 mM. A 10-point, 4-fold, intermediate dilution series was created in 100% DMSO with a top concentration of 4 mM and a bottom concentration of 0.01 μM. A near assay ready, direct dilution plate ([…]) was prepared from this compound dilution plate by transferring 1 μL of each dilution of compound in 100% DMSO to a Greiner #781201 plate. In addition, each […] plate also contained positive and negative control wells to define the upper and lower limits for the assay signal. The final assay concentration range of compound was 10 μM to 0.035 nM in 0.5% DMSO. Human CD^4+ T-Cells were isolated from human whole blood and subsequently activated and expanded using a CD3/CD28 expansion kit (Life Technologies). The cells were frozen in ThermoFisher-formulated Recovery Cell Culture Freezing Medium containing 10% Dimethyl sulfoxide (DMSO) and 10% Fetal Bovine Serum (FBS) (ThermoFisher Catalog No. 10100147). When used, cells were resuspended using room temperature 1× HBSS/20 mM HEPES/0.005% P-104 assay buffer, adjusted the volume of the suspension to achieve a cell concentration of 2.5×10^6 cells/mL. 2× Calcium 4 dye (20 μL/well) were added and the mixture were centrifuged briefly ( 10 s) and stopped when it reached 1000 rpm. The plates were allowed to equilibrate before compounds and CXCL12 were added to the plates. The raw data were analyzed using Abase. The percent (%) effect at each concentration of compound was calculated by Abase and was based on and relative to the amount of calcium produced in the positive and negative control wells contained within each assay plate. The concentrations and % effect values for tested compounds were plotted by Abase and the concentration of compound required for 50% effect (IC50) was determined with a four-parameter logistic dose response equation. FIGS. 3 and 4 summarize the results of Compounds A78 and A83 in the calcium mobilization assay.

Chain of CXCR4 (P61073 whole entry): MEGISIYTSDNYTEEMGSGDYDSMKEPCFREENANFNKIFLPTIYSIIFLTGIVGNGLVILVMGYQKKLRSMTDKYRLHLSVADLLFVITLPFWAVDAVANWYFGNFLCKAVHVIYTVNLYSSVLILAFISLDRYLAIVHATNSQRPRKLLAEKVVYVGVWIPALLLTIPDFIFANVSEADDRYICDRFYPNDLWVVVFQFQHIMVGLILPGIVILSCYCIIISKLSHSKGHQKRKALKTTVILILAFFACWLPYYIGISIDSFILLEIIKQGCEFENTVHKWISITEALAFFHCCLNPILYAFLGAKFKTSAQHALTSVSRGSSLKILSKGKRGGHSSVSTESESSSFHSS

Row | Compound | IC50 [nM]
1 | Cc1nc(CN(C)[C@@H](C)c2ccccn2)cc(N2CCN3CCC[C@@H]3C2)n1 [Compound A78] | 0.062
2 | Cc1nc(CN(C)[C@@H](C)c2ccccn2)cc(N2CCN3CCC[C@H]3C2)n1 [Compound A79] | 0.22
3 | CCN(Cc1cc(N2CCN(C)CC2)nc(C)n1)[C@@H](C)c1ccccn1 [Compound A80] | 0.18
4 | C[C@@H](c1ccccn1)N(C)Cc1cc(N2CCN(C)CC2)nc(CO)n1 [Compound A81] | 4.5
5 | C[C@@H](c1ccccn1)N(C)Cc1cc(N2CCN3CCC[C@@H]3C2)nc(CO)n1 [Compound A82] | 2.5
6 | C[C@@H](c1ccccn1)N(C)Cc1cc(N2CCN(C)CC2)nc(N)n1 [Compound A83] | 0.93
7 | Cc1nc(CN(C)[C@@H](C)c2ccccn2)cc(N2CCN(C)CC2CO)n1 (stereo partly drawn) [Compound A84] | 3
8 | Cc1nc(CN(C)[C@@H](C)c2ccccn2)c(CO)c(N2CCN(C)CC2)n1 [Compound A85, (S)-(2-methyl-4-((methyl(1-(pyridin-2-yl)ethyl)amino)methyl)-6-(4-methylpiperazin-1-yl)pyrimidin-5-yl)methanol] | 0.99
9 | Cc1nc(CN(C)[C@@H](C)c2ccccn2)c(CO)c(N2CCN3CCC[C@@H]3C2)n1 [Compound A86] | 0.13
10 | Cc1nc(CN(C)[C@@H](C)c2ccccn2)c(CO)c(N2CCN3CCC[C@H]3C2)n1 [Compound A87] | 0.18
11 | Cc1nc(CN(C)[C@@H](C)c2ccccn2)c(CO)c(N2CCN(C)[C@@H](C)C2)n1 [Compound A88] | 0.3
12 | Cc1nc(CN(C)[C@@H](C)c2ccccn2)c(CO)c(N2CCN(C)[C@H](C)C2)n1 [Compound A89] | 0.13
13 | Cc1nc(CN(C)C2CCOc3cccnc32)cc(N2CCN(C)CC2)n1 (stereo not drawn) [Compound A90] | 0.046
14 | Cc1nc(CN(C)[C@H]2CCOc3cccnc32)cc(N2CCN(C)CC2)n1 [Compound A91] | 0.032
15 | COc1cccnc1[C@H](C)N(C)Cc1cc(N2CCN(C)CC2)nc(C)n1 [Compound A92] | 118
16 | C[C@@H](c1ccccn1)N(C)Cc1cn2c(N3CCN(C)CC3)cccc2n1 [Compound A95, (S)-N-methyl-N-((5-(4-methylpiperazin-1-yl)imidazo[1,2-a]pyridin-2-yl)methyl)-1-(pyridin-2-yl)ethan-1-amine] | 0.13
17 | C[C@@H](c1ccccn1)N(C)Cc1nc2cccc(N3CCN(C)CC3)n2c1CO [Compound A96, (S)-(2-((methyl(1-(pyridin-2-yl)ethyl)amino)methyl)-5-(4-methylpiperazin-1-yl)imidazo[1,2-a]pyridin-3-yl)methanol] | 0.086
18 | C[C@@H](c1ccccn1)N(C)Cc1cn2c(N3CCN4CCC[C@H]4C3)cccc2n1 [Compound A97] | 0.25
19 | C[C@@H](c1ccccn1)N(C)Cc1cn2c(N3CCN4CCC[C@@H]4C3)cccc2n1 [Compound A98] | 0.15
20 | C[C@@H](c1ccccn1)N(C)Cc1nc2cccc(N3CCN4CCC[C@H]4C3)n2c1CO [Compound A99] | 0.39

Row | Compound | IC50 [nM]
21 | C[C@@H](c1ccccn1)N(C)Cc1nc2cccc(N3CCN4CCC[C@@H]4C3)n2c1CO [Compound A100] | 0.29
22 | Cc1nc(CN2CCC[C@H]2c2ncccc2C)c(F)c(N2CCN(C)CC2)n1 [Compound C33] | 1.1
23 | Cc1nc(CN2CCC[C@H]2c2ncccc2C)c(C#N)c(N2CCN(C)CC2)n1 [Compound C34] | 1.8
24 | Cc1nc(CN2CCC[C@H]2c2ncccc2C)cc(NCCN2CCOCC2)n1 [Compound C35] | 2.7
25 | Cc1nc(CN2CCC[C@H]2c2ncccc2C)cc(N2CCCN(C)CC2)n1 [Compound C36] | 0.5
26 | Cc1nc(CN2CCC[C@H]2c2ncccc2C)cc(N2CCC(N(C)C)CC2)n1 [Compound C37] | 12
27 | Cc1cccnc1[C@@H]1CCCN1Cc1cn2c(N3CCN(C)CC3)cccc2n1 [Compound C38, (S)-5-(4-methylpiperazin-1-yl)-2-((2-(3-methylpyridin-2-yl)pyrrolidin-1-yl)methyl)imidazo11,2-alpyridine] | 0.2
28 | Cc1cccnc1[C@@H]1CCCN1Cc1nc2cccc(N3CCN(C)CC3)n2c1CO [Compound C39, (S)-(5-(4-methylpiperazin-1-yl)-2-((2-(3-methylpyridin-2-yl)pyrrolidin-1-yl)methyl)imidazo[1,2-a]pyridin-3-yl)methanol] | 0.1
29 | Cc1nc(CN(C)c2cccc3cccnc23)cc(N2CCCN(C)CC2)n1 [Compound D3] | 0.63
30 | Cc1nc(CN(C)c2cccc3cccnc23)cc(N2CCN(CCO)CC2)n1 [Compound D5] | 2.1
31 | Cc1nc(CN(C)c2cccc3cccnc23)cc(N2CCC(N(C)C)CC2)n1 [Compound D6] | 2.4
32 | Cc1nc(CN(C)c2cccc3cccnc23)cc(N2CCC(N(C)C)C2)n1 (stereo not drawn) [Compound D7] | 0.75
33 | Cc1nc(CN(C)c2cccc3cccnc23)cc(N2CCN(C3CC3)CC2)n1 [Compound D8] | 1.4
34 | CCc1nc(CN(C)c2cccc3cccnc23)cc(N2CCN(C)CC2)n1 [Compound D9] | 0.59
35 | CN1CCN(c2cc(CN(C)c3cccc4cccnc34)nc(C3CC3)n2)CC1 [Compound D10] | 2.9
36 | CN1CCN(c2cc(CN(C)c3cccc4cccnc34)nc(N(C)C)n2)CC1 [Compound D11] | 1700
37 | CSc1nc(CN(C)c2cccc3cccnc23)cc(N2CCN(C)CC2)n1 [Compound D12] | 0.61
38 | COc1nc(CN(C)c2cccc3cccnc23)cc(N2CCN(C)CC2)n1 [Compound D13] | 2.9
39 | Cc1cc(N(C)Cc2cc(N3CCN(C)CC3)nc(C)n2)c2ncccc2c1 [Compound D15] | 0.4
40 | Cc1nc(CN(C)c2ccc(C)c3cccnc23)cc(N2CCN(C)CC2)n1 [Compound D16] | 2.7

Row | Compound | IC50 [nM]
41 | Cc1nc(CN(C)c2c(F)ccc3cccnc23)cc(N2CCN(C)CC2)n1 [Compound D17] | 74
42 | Cc1nc(CN(C)c2cc(F)cc3cccnc23)cc(N2CCN(C)CC2)n1 [Compound D18] | 0.79
43 | Cc1nc(CN(C)c2ccc(F)c3cccnc23)cc(N2CCN(C)CC2)n1 [Compound D19] | 0.4
44 | Cc1nc(CN(C)c2nccc3cccnc23)cc(N2CCN(C)CC2)n1 [Compound D21, N-methyl-N-((2-methyl-6-(4-methylpiperazin-1-yl)pyrimidin-4-yl)methyl)-1,7-naphthyridin-8-amine] | 1580
45 | Cc1nc(CN(C)c2cncc3cccnc23)cc(N2CCN(C)CC2)n1 [Compound D22, N-methyl-N-((2-methyl-6-(4-methylpiperazin-1-yl)pyrimidin-4-yl)methyl)-1,6-naphthyridin-8-amine] | 965
46 | Cc1nc(CN(C)c2ncnc3cccnc23)cc(N2CCN(C)CC2)n1 [Compound D24] | 12400
47 | Cc1nc(CN(c2cccc3cccnc23)C2CC2)cc(N2CCN(C)CC2)n1 [Compound D26] | 2.3
48 | Cc1nc(CN(CCCCNC(=O)OC(C)(C)C)c2cccc3cccnc23)cc(N2CCN(C)CC2)n1 [Compound D27] | 1.7
49 | Cc1nc(CN(CCCC(=O)OC(C)(C)C)c2cccc3cccnc23)cc(N2CCN(C)CC2)n1 [Compound D29] | 12.7
50 | Cc1nc(CN(CCCC(N)=O)c2cccc3cccnc23)cc(N2CCN(C)CC2)n1 [Compound D31, 4-(((2-methyl-6-(4-methylpiperazin-1-yl)pyrimidin-4-yl)methyl)(quinolin-8-yl)amino)butanamide] | 1.25
51 | CCN(Cc1cc(N2CCN(C)CC2)nc(C)n1)c1cc(C)cc2cccnc12 [Compound D32] | 0.53
52 | Cc1nc(CN(C)c2cccc3cccnc23)c(C)c(N2CCN(C)CC2)n1 [Compound D33] | 0.51
53 | Cc1nc(CN(C)c2cccc3cccnc23)c(F)c(N2CCN(C)CC2)n1 [Compound D34] | 0.83
54 | Cc1nc(CN(C)c2cccc3cccnc23)c(Cl)c(N2CCN(C)CC2)n1 [Compound D35] | 1.2
55 | Cc1nc(CN(C)c2cccc3cccnc23)c(CO)c(N2CCN(C)CC2)n1 [Compound D37] | 0.95
56 | CN1CCN(c2cccc3nc(CN(C)c4cccc5cccnc45)cn23)CC1 [Compound D38] | 0.18
57 | CN1CCN(c2cccc3nc(CN(C)c4cccc5cccnc45)c(CO)n23)CC1 [Compound D39] | 0.088
58 | Cc1nc(CN(C)c2ccc(C(F)(F)F)c3cccnc23)cc(N2CCN(C)CC2)n1 [Compound D40] | 2850
59 | Cc1nc(CN(C)c2ccc(Br)c3cccnc23)cc(N2CCN(C)CC2)n1 [Compound D41] | 6.3
60 | Cc1nc(CN(C)c2ccc(C#N)c3cccnc23)cc(N2CCN(C)CC2)n1 [Compound D42] | 96
